These results are taken from patent US20260234107A1, “TRYPTAMINES AND METHODS OF TREATING MOOD DISORDERS” (priority 2022, published 2026).

For data set [1], the system named is rat synaptosomes. Put plainly: Serotonin (5-HT) release from rat synaptosomes. Format: biochemical, Male Sprague-Dawley rats. Particulars: for 5-HT release potency/efficacy compared with analog (in words) / % Release @ Max Dose (10 μM): rat synaptosomes; for EC50: rat synaptosomes preloaded with [3H]5-HT. Summed up: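 Synaptosomes from male Sprague-Dawley rat brain (minus cerebellum, striatum) preloaded 2 h at 25° C with 5 nM [^3H]5-HT, with GBR12935, nomifensine and reserpine blocking DAT, NET and VMAT2. Exposed 10 min to compound in KPB with BSA, then filtered; release taken as loss of retained radioactivity.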

A short description of data set [2]: Stability in mouse brain homogenate. Format: in vitro ADME, male CD-1 mice. Particulars: mouse brain homogenate, 1 μM, 37° C.; for half-life at 1 µM: male, CD-1.
Data set [3] can be described thus: Plasma pharmacokinetics in mice after subcutaneous administration. Format: in vivo, male C57BL/6 mice. The following applies: plasma, male C57BL/6 mice, SC 10 mg/kg. An excerpt:
Animals. […] Four mice were housed in each cage. […] All animals were provided laboratory rodent diet. […] Animals were randomly assigned to treatment groups.

Take `CC(C)NCCc1c[nH]c2ccc(F)c(O)c12` [Compound 35, 5-fluoro-3-(2-(isopropylamino)ethyl)-1H-indol-4-ol]: in data set [1], the “5-HT release potency/efficacy compared with analog (in words)” value is “significantly more potent and efficacious than their non-fluorinated analogs”; a half-maximal effect (EC50) was put at 6940 nM; the “% Release @ Max Dose (10 μM)” value is reported as 53.2%. Further, in data set [2], the half-life at 1 µM came out at 90.5 min and the “% Compound Remaining (after 120 min)” value was determined as 40%.

In the case of `CN(C)CCc1c[nH]c2ccc(F)cc12` [Compound 5-F-DMT, reference compound], in data set [1], the EC50 is 40.7 nM and the “% Release @ Max Dose (10 μM)” value is recorded as 81.44%. In data set [3] (mouse), the exposure AUC(0-t) came out at 247 ng·h/mL and the Cmax amounted to 363 ng/mL. In data set [3], the Tmax came to 15 min and the t1/2 is 16.2 min. Further, in data set [2], the t1/2 worked out at 3.1 min and the “% Compound Remaining (after 120 min)” value is given as 0.0%.

Regarding `CCNCCc1c[nH]c2ccc(F)c(O)c12` [Compound 28, 3-(2-(ethylamino)ethyl)-5-fluoro-1H-indol-4-ol], in data set [1], the “5-HT release potency/efficacy compared with analog (in words)” value was “significantly more potent and efficacious than their non-fluorinated analogs”; the EC50 is 708 nM; the “% Release @ Max Dose (10 μM)” value was determined as 73.6%. In data set [2], the half-life at 1 µM came out at 22.1 min and the “% Compound Remaining (after 120 min)” value was 1.9%.

By EC50 is commonly meant the midpoint of the concentration-response curve. What is called half-life is the time in which the quantity being followed falls by half. A low value points to rapid decline. A word on the AUC(0-t): it is the area under the concentration-time curve up to a stated or last time point. High values mean high exposure, low ones low exposure. As usually defined, the Cmax is the peak of the concentration-time curve. Broadly, the Tmax is the time from dosing to the highest level.
